Reference: patent US11186565B2, “Aromatic compound” (TAKEDA PHARMACEUTICAL COMPANY LIMITED, priority 2017, dated 2021)

Molecular target: T1, human GPR40 (Homo sapiens, UniProt O14842)
T1 construct: expressed in transfected cells
Test: Human GPR40 agonist activity with increase in intracellular Ca2+ concentration as an index
Format: cell-based
Details: test compound at final concentration 1 μM; CHO(dhfr−) cells stably expressing human GPR40; FLIPR Ca2+ fluorescence; 100% = 10 μM compound of WO 2015/020184 Example 153, 0% = DMSO
Method: Evaluation of Human GPR40 Agonist Activity with Increase in Intracellular Ca^2+ Concentration as an Index
CHO(dhfr−) cells that stably expressed human GPR40 were suspended in MEMα (Wako Pure Chemical Industries, Ltd.) containing 10% dialyzed serum (Thermo Fisher Scientific), 10 mM HEPES (Thermo Fisher Scientific), 100 U/mL penicillin, 100 μg/mL streptomycin (Wako Pure Chemical Industries, Ltd.), and plated on a 384 well black/clear cell culture plate at 10,000 cells/well. After culture overnight in a CO2 incubator at 37° C., the culture supernatant was removed, and loading buffer [Ca^2+ probe attached to Calcium Kit II-iCellux (DOJINDO) was dissolved in assay buffer (20 mM HEPES, 0.1% fatty acid-free BSA (Wako Pure Chemical Industries, Ltd.), 2.5 mM probenecid (DOJINDO)-containing HESS (Thermo Fisher Scientific))] was added at 30 μL/well. After leaving for 1 hr at room temperature under light shielding, assay buffer containing the test compound at a final concentration of 1 μM was added at 10 μL/well in fluorescence plate reader FLIPR Tetra (Molecular Devices), and the fluorescence amount was successively measured. Human GPR40 agonist activity was calculated using an increase in the intracellular Ca^2+ concentration as an index, wherein the activity of 10 μM of the compound of WO 2015/020184 (Example 153: 3-cyclopropyl-3-(2-((1-(2-((2-fluoro-2-methylpropyl)(4-methylpyridin-2-yl)carbamoyl)-5-methoxyphenyl)piperidin-4-yl)methoxy)pyridin-4-yl)propanoic acid) was 100%, and the activity when DMSO was added instead of the test compound was 0%.

T1 sequence (O14842 whole entry): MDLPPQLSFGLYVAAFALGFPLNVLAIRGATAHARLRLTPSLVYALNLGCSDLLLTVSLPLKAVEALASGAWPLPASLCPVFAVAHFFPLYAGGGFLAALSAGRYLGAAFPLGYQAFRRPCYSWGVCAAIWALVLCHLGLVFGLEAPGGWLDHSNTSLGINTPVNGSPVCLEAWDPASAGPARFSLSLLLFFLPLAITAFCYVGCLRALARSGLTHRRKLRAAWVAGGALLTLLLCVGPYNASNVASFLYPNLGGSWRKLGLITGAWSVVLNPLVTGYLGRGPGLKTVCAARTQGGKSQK

Compound	activity (human GPR40 agonist activity) [%]
COc1ccc(-c2cnc(OCC(F)(F)F)nc2)c(O[C@H]2CC[C@H](Oc3cc(C(CC(=O)O)C4CC4)ccn3)CC2)c1 (stereo partly drawn) [Example 3, 3-cyclopropyl-3-(2-((trans-4-(5-methoxy-2-(2-(2,2,2-trifluoroethoxy)pyrimidin-5-yl)phenoxy)cyclohexyl)oxy)pyridin-4-yl)propanoic acid]	84
COc1cc(N2CCC(COc3cc([C@@H](CC(=O)O)C4CC4)ccn3)CC2)c(C2CCN(CC(F)(F)F)CC2)cn1 [Example 4, (3S)-3-cyclopropyl-3-(2-((1-(2-methoxy-5-(1-(2,2,2-trifluoroethyl)piperidin-4-yl)pyridin-4-yl)piperidin-4-yl)methoxy)pyridin-4-yl)propanoic acid]	110
COc1ccc(C2CCN(CC(F)(F)F)CC2)c(O[C@H]2CC[C@H](Oc3cc(C(CC(=O)O)C4CC4)ccn3)CC2)c1 (stereo partly drawn) [Example 1, 3-cyclopropyl-3-(2-((trans-4-(5-methoxy-2-(1-(2,2,2-trifluoroethyl)piperidin-4-yl)phenoxy)cyclohexyl)oxy)pyridin-4-yl)propanoic acid]	86

More lines, now with the values ahead:

activity (human GPR40 agonist activity) [%]	Compound
80	COc1ccc(-c2ccc(OC)nc2)c(O[C@H]2CC[C@H](Oc3cc(C(CC(=O)O)C4CC4)ccn3)CC2)c1 (stereo partly drawn) [Example 7, 3-cyclopropyl-3-(2-((trans-4-(5-methoxy-2-(6-methoxypyridin-3-yl)phenoxy)cyclohexyl)oxy)pyridin-4-yl)propanoic acid]
106	COc1cc(N2CCC(COc3cc([C@@H](CC(=O)O)C4CC4)ccn3)CC2)c(NCC(F)(F)C(F)(F)F)cn1 [Example 6, (3S)-3-cyclopropyl-3-(2-((1-(2-methoxy-5-((2,2,3,3,3-pentafluoropropyl)amino)pyridin-4-yl)piperidin-4-yl)methoxy)pyridin-4-yl)propanoic acid]
